Measured values reported in US8147808B2, “Consumer noticeable improvement in wetness protection using solid antiperspirant compositions” (The Procter & Gamble Company, priority 2005, dated 2012).

assay: Odor detection threshold (ODT) determined using a gas chromatograph; conditions: odor detection threshold of HIA perfume ingredient
Text: HIA perfume ingredients are characterized by their respective boiling point (B.P.), octanol/water partition coefficient (P) and odor detection threshold (“ODT”). The “octanol/water partition coefficient (P)” of a perfume ingredient is the ratio between its equilibrium concentrations in octanol and in water. The boiling points of many perfume ingredients, at standard pressure (760 mm Hg) are given in, e.g., “Perfume and Flavor Chemicals (Aroma Chemicals),” Steffen Arctander, published by the author.
Odor detection thresholds are determined using a gas chromotograph as disclosed in co-pending application, Browne, et al., filed Jun. 9, 2004.

Molecule	ODT
CCC=CCCC=CC=O [2-6-nonadienal]	≦50 ppb
CC(C)=CCCC(C)CCCC(C)C=O (stereo not drawn) [Adoxal]	≧50 ppb
C=CCOC(=O)CCCCCC [Allyl Heptanoate]	≧50 ppb
CC/C=C\CCO [Beta Gamma Hexenol]	≧50 ppb
CC/C=C\CCOC(C)=O [Cis 3 Hexenyl Acetate]	≧50 ppb
C/C=C\C(=O)C1C(C)=CCCC1(C)C (stereo not drawn) [Damarose Alpha]	≦50 ppb
CCCCCCCCCC=O [Decyl Aldehyde]	≦50 ppb
CCCCCCC(C=O)=Cc1ccccc1 [Hexyl Cinnamic Aldehyde]	≧50 ppb
CC(=O)/C=C/C1=C(C)CCCC1(C)C [Ionone Beta]	≦50 ppb
CCCCCCCCC/C=C/C=O [Mandarin Aldehyde]	≦50 ppb
CC(C)=CCCC(C)C=O (stereo not drawn) [Melonal]	≦50 ppb
CCCCCCCCCC(C)C=O (stereo not drawn) [Methyl Nonyl Acetaldehyde]	≦50 ppb
CC1=CCC(C(C)CC2CCCC2=O)CC1 (stereo not drawn) [Nectaryl]	≧50 ppb
C=CCCC(=O)C1=CCCC(C)(C)C1 [Neobutenone]	≦50 ppb
CC(=O)CCc1ccc(O)cc1 [Para Hydroxy Phenyl Butanone]	≦50 ppb
CC1(C)C2CC=C(CCC=O)C1C2 (stereo not drawn) [Pino Acetaldehyde]	≦50 ppb
CCC/C=C/C=O [Trans-2 Hexenal]	≦50 ppb
CCCCCCCC1CCC(=O)O1 (stereo not drawn) [Undecalactone]	≧50 ppb
CC(=O)OC1CCCCC1C(C)(C)C (stereo not drawn) [Verdox]	≧50 ppb
C=C(C)[C@H]1CC=C(C)CC1 [d-limonene]	≧50 ppb
CCOC(=O)C(C)CC (stereo not drawn) [ethyl-2-methyl butyrate]	≦50 ppb
CCCCCCC=CC(=O)OC [methyl-2-nonenoate]	≦50 ppb
Citralva Plus	≦50 ppb
Natural Sinensal	≦50 ppb
